Data on 4 compounds can be found in US12649746B2, “Ketorolaco derivative, pharmaceutical composition and preparation method therefor and use thereof” (NANJING HERON PHARMACEUTICAL SCIENCE AND TECHNOLOGY CO., …, priority 2020, dated 2026).

The conditions of data set [1]: cited from earlier work.
For data set [2] the following is noted: cited from earlier work. This is another data set of the same source.
The nature of data set [3]: Enzymolysis kinetics experiment of compounds in plasma. The settings on record: human plasma, up to 120 min.
The nature of data set [4]: in vitro. The note with it: human, plasma.
The conditions of data set [5]: human, 97.6 µM.
A short description of data set [6]: High temperature stability study of compounds (60° C.). The data set is classed as physicochemical. The note with it: in the dark; for Ketorolac (%): related substance. The protocol:
Test protocol: the compounds prepared in the present disclosure were placed in a colorless and transparent vial, placed in the dark at a high temperature (60° C.), and were sampled for day 0, day 5 and day 10, respectively, and the purity of the compounds and the change of the related substance (ketorolac) were determined.

Data set [7] in a line: By-product toxicity test (metabolic byproducts in the human body). The note with it: for Toxicity: toxicity of the metabolic by-products in human body.
The mark [8] stands for this setting: oral administration and intramuscular injection.

The structures appear in SMILES notation. “Also recorded” adds a separate entry of the source. Like-named read-outs stand apart in the source and are kept apart here.

On to `O=C(c1ccccc1)c1ccc2n1CCC2C(=O)O` (racemic) [Ketorolac, (±)-5-benzoyl-2,3-dihydro-1H-pyrrolizine-1-carboxylic acid], for which the elimination half-life in data set [1] (elderly patients) is 360 to 420 min. Further, in data set [1] (in vivo), the “binding rate to plasma protein” value is on record as “more than 99%”; the distribution volume is 0.1 to 0.3 L/kg; the elimination half-life was 240 to 360 min; the “original drug and metabolites excreted with the urine” value is given as “about 90%”. In data set [1] (in vivo), the total clearance rate is 0.5 mL/min/kg. Also, in data set [1] (setting [8]), the effective treatment plasma concentration was 0.3 to 5 µg/mL and the “peak concentration time of the plasma concentration” value is 20 to 60 min. In addition, in data set [1] (renal insufficiency patients), the elimination half-life is 540 to 600 min. In data set [2] (times that of aspirin), the “analgesic activity relative to aspirin” value is 800 times. Further, in data set [2] (times that of indomethacin), the “analgesic activity relative to indomethacin” value is listed as 60 times. Also, in data set [2] (times that of morphine), the “analgesic activity relative to morphine” value is on record as 0.4 times.
With `CC(=O)OC(C)OC(=O)C(C)c1ccc(-c2ccccc2)c(F)c1` (stereo not drawn) [FPA, flurbiprofen axetil, reference compound], in data set [3], the “degradation / metabolic rate in human plasma (in words)” value was “could be metabolized faster”. In data set [4], this compound returned a half-life at 97.6 µM of 40.8 min.
Turning to `CCC(=O)OC(CC)OC(=O)C1CCn2c(C(=O)c3ccccc3)ccc21` (stereo not drawn) [N8], the “Content of ketorolac %” value came to 0% in data set [5] (0 min); 19.140 ± 1.467% in data set [5] (15 min); 36.277 ± 3.301% in data set [5] (30 min); 53.130 ± 2.171% in data set [5] (60 min); 65.997 ± 3.446% in data set [5] (120 min). Besides, the “Content of the compound %” value in data set [5] (0 min) is listed as 100 ± 1.782%; in data set [5] (15 min) it was 69.713 ± 6.985%; in data set [5] (30 min), 42.467 ± 2.983%; in data set [5] (60 min), 8.777 ± 0.560%; in data set [5] (120 min) it was 0%. The figures for the “Total main peak purity (%)” value in data set [6] (Day 0), in data set [6] (Day 5) and in data set [6] (Day 10) were 93.15%, 93.30% and 92.34%, respectively. Also, the “Ketorolac (%)” value amounted to 0.18% in data set [6] (Day 0), 0.42% in data set [6] (Day 5) and 0.96% in data set [6] (Day 10). Moreover, in data set [7], the Toxicity entry is given as “low toxicity of byproducts; also recorded: relatively low”. In addition, the half-life at 97.6 µM in data set [4] is 16.9 min.
For the compound `CCOC(=O)OC(C)OC(=O)C1CCn2c(C(=O)c3ccccc3)ccc21` (stereo not drawn) [N12], the “Content of ketorolac %” value in data set [5] (0 min) is 2.033 ± 0.342%; in data set [5] (15 min) it was 34.203 ± 3.165%; in data set [5] (30 min) it was 53.297 ± 1.296%; in data set [5] (60 min), 76.623 ± 10.483%; in data set [5] (120 min) it was 87.973 ± 4.045%. Further, the “Content of the compound %” value in data set [5] (0 min) was found to be 97.967 ± 6.878%; in data set [5] (15 min), 56.277 ± 3.890%; in data set [5] (30 min) it was 25.590 ± 1.131%; in data set [5] (60 min), 5.997 ± 0.976%; in data set [5] (120 min) it was 0%. The “Total main peak purity (%)” value in data set [6] (Day 0) is given as 93.84%; in data set [6] (Day 5), 93.59%; in data set [6] (Day 10) it was 93.36%. Besides, the “Ketorolac (%)” value was found to be 0.03% in data set [6] (Day 0), 0.07% in data set [6] (Day 5) and 0.07% in data set [6] (Day 10). Further, the “Metabolic by-products in human body” value in data set [7] (by the metabolic pathways of the compounds in the human body) was “Acetaldehyde and acetic acid”. Also, in data set [7], the Toxicity entry is on record as “low toxicity of byproducts; also recorded: relatively low”. This compound also registered a half-life at 97.6 µM in data set [4] of 14.8 min.
